Data on 1 molecule can be found in US12569467B2, “Small molecules that treat or prevent viral infections” (priority 2022, dated 2026).

The test system of one data set is HEK293 cells. Conditions: PrestoBlue, various concentrations, within the indicated concentrations (FIG. 3E).
In the next data set the target is SARS-CoV2 spike protein (Severe acute respiratory syndrome coronavirus 2, UniProt P0DTC2). In kind it is binding.

As for `O=C1Nc2ccccc2/C1=C\c1ccc(-c2cc(C(F)(F)F)cc(C(F)(F)F)c2)o1` [CD04872SC, 3-({5-[3,5-di(trifluoromethyl)phenyl]-2-furyl}methylidene)indolin-2-one], in the data set with HEK293 cells, the cell cytotoxicity result was “without major cell cytotoxicity”. Also, the “difference of thermal stability (Tm) in presence versus absence of compound” value on SARS-CoV2 spike protein is given as “about 3 Celsius degrees”.
